The values below are quoted from earlier work in patent US11413265B2, “Formulations and compositions of Cabazitaxel” (Zhuhai Beihai Biotech Co., Ltd., priority 2018, dated 2022).

For series [1], the target named is human serum albumin (Homo sapiens, UniProt P02768). To be noted: in vitro.
Series [2] concerns human serum proteins. To be noted: in vitro.

The structures appear in SMILES notation.

human serum albumin, sequence (P02768 25-609): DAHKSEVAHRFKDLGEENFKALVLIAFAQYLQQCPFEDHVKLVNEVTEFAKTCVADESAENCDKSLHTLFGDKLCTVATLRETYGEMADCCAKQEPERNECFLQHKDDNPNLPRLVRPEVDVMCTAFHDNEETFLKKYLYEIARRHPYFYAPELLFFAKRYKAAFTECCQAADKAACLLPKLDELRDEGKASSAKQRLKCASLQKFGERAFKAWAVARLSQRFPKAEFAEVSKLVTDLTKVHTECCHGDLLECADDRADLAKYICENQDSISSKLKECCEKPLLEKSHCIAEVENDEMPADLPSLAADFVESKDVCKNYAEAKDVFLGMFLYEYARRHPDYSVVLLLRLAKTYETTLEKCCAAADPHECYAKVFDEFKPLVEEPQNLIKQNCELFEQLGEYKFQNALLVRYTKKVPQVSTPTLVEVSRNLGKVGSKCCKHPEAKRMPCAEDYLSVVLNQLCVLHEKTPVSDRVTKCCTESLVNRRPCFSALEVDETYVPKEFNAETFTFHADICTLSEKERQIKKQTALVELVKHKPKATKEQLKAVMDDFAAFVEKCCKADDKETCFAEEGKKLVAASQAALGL

Turning to `CO[C@H]1C(=O)[C@]2(C)[C@@H](OC)C[C@H]3OC[C@@]3(OC(C)=O)[C@H]2[C@H](OC(=O)c2ccccc2)[C@]2(O)C[C@H](OC(=O)[C@H](O)[C@@H](NC(=O)OC(C)(C)C)c3ccccc3)C(C)=C1C2(C)C` [Cabazitaxel, cabazitaxel], under “alcohol”, the solubility in alcohol entry is recorded as “soluble”. Under “water”, the solubility in water result is “practically insoluble”. In series [1], the “bound to human serum albumin” value is 82%. Moreover, the “concentration up to which binding to human serum proteins was not saturable” value in series [2] is on record as > 50,000 ng/mL.
